Data taken from ChEMBL document CHEMBL1140018, “Synthesis and structure-activity relationship of imidazo(1,2-a)thieno(3,2-e)pyrazines as IKK-beta inhibitors” (Bioorg Med Chem Lett, 2007).
Values after ≈ are worked out from the molar mass of the structure shown. Active and inactive are the calls of the source. The calls are words filed in the database; no cut-off is given here.

Key:
[1] = Cmax in mouse at 10 mg/kg, po; type: ADME, organism-based; design: dose 10 mg/kg, route oral; conditions: in vivo
[2] = Drug level in LPS-challenged mouse serum at 30 mg/kg after 5.5 hrs; type: ADME, organism-based; design: dose 30 mg/kg; conditions: read-out: Activity
[3] = tested on: Mus musculus; assay: Reduction of LPS-induced TNFalpha release in mouse at 30 mg/kg administered 4 hrs before LPS challenge; type: functional; design: scale not given: the % may be the effect or the level left
[4] = tested on: Jurkat; assay: Inhibition of TNF-alpha-induced response in Jurkat cells; conditions: Homo sapiens
[5] = Cytotoxicity against Jurkat cells by Alamar blue assay; conditions: human, Jurkat cells
[6] = tested on: Mus musculus; assay: Reduction of LPS-induced TNFalpha release in mouse at 30 mg/kg administered 1 hr before LPS challenge; type: functional; design: scale not given: the % may be the effect or the level left
[7] = Tmax in mouse at 10 mg/kg, po; type: ADME, organism-based; design: dose 10 mg/kg, route oral; conditions: in vivo
[8] = AUC(1 to 4 hrs) in mouse at 10 mg/kg, po; type: ADME, organism-based; design: time upper 4 hr, time lower 1 hr, dose 10 mg/kg, route oral; conditions: plasma
[9] = Drug level in LPS-challenged mouse serum at 30 mg/kg after 2.5 hrs; type: ADME, organism-based; design: dose 30 mg/kg; conditions: read-out: Activity
[10] = tested on: PBMC; assay: Inhibition of LPS-induced TNFalpha production in PBMC; type: functional, cell-based; conditions: Homo sapiens
[11] = tested on: Liver microsomes; assay: Metabolic stability in human liver microsomes; type: ADME, Microsome
[12] = tested on: Liver; assay: Metabolic stability in mouse liver microsomes; type: ADME, Microsome
[13] = molecular target: T1, Inhibitor of nuclear factor kappa-B kinase subunit beta (Homo sapiens, UniProt O14920)
T1 sequence (O14920 whole entry): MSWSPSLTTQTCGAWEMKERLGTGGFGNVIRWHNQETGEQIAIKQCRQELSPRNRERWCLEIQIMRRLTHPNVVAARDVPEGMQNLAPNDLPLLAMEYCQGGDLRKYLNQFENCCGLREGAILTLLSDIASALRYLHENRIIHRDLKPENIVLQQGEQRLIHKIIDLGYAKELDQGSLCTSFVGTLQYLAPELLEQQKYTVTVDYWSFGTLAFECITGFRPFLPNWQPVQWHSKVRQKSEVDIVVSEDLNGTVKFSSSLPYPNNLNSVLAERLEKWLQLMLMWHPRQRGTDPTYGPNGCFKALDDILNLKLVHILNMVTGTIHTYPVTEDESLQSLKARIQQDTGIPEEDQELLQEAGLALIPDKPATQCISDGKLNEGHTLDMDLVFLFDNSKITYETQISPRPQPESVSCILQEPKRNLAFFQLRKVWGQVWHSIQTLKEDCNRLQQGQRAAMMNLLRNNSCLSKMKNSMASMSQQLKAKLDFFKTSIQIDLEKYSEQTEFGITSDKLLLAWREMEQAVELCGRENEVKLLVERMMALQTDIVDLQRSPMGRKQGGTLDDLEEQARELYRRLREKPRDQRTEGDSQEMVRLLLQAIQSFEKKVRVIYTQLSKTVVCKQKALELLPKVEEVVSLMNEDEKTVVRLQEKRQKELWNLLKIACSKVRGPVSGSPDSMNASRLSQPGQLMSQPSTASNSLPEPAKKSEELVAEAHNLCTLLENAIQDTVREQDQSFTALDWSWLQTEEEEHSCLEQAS

[14] = molecular target: T2, Inhibitor of nuclear factor kappa-B kinase subunit alpha (Homo sapiens, UniProt O15111)
T2 sequence (O15111 whole entry): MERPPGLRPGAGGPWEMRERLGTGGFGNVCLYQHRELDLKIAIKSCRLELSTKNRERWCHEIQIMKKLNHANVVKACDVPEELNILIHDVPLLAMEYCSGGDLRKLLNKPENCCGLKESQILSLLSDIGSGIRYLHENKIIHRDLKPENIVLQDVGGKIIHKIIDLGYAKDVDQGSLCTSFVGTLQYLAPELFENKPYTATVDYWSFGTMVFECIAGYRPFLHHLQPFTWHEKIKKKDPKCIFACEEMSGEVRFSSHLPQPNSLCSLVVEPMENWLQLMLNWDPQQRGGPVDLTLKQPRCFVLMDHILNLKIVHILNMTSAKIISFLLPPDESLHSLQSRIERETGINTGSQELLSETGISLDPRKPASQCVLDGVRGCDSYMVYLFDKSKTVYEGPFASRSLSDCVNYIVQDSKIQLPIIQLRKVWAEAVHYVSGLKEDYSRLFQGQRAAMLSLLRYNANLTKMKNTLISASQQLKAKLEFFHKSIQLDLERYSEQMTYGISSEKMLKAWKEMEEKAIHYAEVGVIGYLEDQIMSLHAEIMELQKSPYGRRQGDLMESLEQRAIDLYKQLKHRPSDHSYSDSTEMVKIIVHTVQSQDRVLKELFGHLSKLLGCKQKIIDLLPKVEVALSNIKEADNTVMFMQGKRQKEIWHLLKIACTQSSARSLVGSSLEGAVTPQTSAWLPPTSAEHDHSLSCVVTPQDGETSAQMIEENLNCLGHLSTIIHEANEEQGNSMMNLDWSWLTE

[15] = molecular target: T3, Inhibitor of nuclear factor kappa-B kinase subunit epsilon (Homo sapiens) (UniProt Q14164); assay: Inhibition of IKKepsilon
T3 sequence (whole entry): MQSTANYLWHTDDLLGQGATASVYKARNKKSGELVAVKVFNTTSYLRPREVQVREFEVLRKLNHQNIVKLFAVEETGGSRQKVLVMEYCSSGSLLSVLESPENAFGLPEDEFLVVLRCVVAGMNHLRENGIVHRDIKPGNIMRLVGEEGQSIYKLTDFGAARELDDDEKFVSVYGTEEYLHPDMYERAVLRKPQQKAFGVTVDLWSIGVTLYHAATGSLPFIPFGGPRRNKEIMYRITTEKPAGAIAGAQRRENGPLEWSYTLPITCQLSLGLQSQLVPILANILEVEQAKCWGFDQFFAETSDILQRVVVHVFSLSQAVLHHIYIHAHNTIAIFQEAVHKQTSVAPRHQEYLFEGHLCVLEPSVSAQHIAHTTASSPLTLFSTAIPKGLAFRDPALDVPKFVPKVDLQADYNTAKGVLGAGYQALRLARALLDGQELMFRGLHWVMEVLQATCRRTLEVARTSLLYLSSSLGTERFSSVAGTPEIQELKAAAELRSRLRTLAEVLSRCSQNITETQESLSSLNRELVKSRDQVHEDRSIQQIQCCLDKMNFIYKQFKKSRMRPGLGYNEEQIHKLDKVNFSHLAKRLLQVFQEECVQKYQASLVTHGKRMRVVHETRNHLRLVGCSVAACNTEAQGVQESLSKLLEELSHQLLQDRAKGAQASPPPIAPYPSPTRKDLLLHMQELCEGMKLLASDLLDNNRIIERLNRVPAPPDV

[16] = species on record: Homo sapiens; assay: Inhibition of VEGF
[17] = molecular target: Insulin-like growth factor 1 receptor (Homo sapiens) (UniProt P08069); assay: Inhibition of IGF1R
Insulin-like growth factor 1 receptor (Homo sapiens), sequence (P08069 31-736 limits assumed): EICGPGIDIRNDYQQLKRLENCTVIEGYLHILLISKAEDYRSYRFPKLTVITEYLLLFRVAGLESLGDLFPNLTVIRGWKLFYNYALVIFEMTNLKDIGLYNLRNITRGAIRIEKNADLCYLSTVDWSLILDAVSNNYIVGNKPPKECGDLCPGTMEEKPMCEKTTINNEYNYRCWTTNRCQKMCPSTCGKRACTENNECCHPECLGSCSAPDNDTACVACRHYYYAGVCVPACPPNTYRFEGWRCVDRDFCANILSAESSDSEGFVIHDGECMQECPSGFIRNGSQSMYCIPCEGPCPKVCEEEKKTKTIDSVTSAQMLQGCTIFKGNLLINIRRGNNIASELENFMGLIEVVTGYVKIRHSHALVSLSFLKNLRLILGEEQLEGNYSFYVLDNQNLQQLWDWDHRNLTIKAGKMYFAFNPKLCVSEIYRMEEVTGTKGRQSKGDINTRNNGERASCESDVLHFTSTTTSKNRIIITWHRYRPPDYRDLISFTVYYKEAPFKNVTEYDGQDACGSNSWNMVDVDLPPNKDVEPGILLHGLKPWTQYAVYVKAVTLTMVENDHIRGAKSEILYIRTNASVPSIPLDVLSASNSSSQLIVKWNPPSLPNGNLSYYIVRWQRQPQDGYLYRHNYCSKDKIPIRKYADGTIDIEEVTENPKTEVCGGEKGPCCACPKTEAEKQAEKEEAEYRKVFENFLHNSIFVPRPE
Insulin-like growth factor 1 receptor (Homo sapiens), sequence (P08069 741-1367 limits assumed): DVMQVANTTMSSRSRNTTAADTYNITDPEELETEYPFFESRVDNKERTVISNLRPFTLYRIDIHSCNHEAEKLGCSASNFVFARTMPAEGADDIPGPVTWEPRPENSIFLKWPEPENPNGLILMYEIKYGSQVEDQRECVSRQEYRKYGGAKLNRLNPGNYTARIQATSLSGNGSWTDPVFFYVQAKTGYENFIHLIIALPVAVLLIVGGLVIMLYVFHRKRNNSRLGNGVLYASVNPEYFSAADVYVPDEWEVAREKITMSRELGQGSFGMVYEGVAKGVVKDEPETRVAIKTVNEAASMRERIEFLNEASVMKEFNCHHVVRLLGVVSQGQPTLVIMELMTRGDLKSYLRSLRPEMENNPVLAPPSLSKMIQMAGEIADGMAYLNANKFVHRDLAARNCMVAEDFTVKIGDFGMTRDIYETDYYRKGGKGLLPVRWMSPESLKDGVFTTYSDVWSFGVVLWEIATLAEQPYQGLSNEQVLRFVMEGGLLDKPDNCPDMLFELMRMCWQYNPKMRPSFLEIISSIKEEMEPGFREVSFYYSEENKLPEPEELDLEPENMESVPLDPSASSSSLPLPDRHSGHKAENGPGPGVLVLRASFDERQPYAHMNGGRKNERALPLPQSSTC

[18] = molecular target: Epidermal growth factor receptor (Homo sapiens) (UniProt P00533); assay: Inhibition of Her1
Epidermal growth factor receptor (Homo sapiens), sequence (P00533 whole entry): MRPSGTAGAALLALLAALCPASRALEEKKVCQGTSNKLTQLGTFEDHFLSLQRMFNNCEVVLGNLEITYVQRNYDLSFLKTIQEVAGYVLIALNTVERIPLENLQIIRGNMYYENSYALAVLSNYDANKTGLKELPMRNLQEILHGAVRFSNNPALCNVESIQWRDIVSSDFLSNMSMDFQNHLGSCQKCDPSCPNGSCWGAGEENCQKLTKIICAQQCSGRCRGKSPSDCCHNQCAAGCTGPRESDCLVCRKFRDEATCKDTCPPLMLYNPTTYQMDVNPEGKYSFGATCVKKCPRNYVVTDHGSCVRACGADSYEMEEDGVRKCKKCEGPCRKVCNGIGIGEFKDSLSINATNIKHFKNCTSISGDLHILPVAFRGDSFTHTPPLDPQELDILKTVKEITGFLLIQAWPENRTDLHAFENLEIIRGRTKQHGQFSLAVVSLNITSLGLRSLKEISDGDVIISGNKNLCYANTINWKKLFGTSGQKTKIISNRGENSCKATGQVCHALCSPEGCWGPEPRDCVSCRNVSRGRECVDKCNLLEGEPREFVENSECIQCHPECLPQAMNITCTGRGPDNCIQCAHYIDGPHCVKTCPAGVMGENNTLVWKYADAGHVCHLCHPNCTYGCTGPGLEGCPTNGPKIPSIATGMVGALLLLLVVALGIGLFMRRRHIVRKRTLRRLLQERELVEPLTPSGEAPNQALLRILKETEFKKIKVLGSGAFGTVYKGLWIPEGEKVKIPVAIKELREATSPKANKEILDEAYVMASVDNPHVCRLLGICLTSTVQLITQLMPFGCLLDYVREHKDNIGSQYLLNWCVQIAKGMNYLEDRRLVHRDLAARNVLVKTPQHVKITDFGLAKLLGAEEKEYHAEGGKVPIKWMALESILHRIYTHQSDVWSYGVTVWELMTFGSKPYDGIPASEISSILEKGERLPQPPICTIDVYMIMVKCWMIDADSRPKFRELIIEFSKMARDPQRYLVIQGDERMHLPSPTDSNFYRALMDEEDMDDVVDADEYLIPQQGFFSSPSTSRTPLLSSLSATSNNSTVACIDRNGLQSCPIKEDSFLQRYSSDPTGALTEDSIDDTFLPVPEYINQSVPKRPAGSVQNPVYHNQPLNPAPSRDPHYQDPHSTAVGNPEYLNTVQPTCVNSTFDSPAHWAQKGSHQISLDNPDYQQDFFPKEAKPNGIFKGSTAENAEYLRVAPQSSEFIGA

[19] = species on record: Homo sapiens; assay: Inhibition of PKA
[20] = molecular target: Receptor tyrosine-protein kinase erbB-2 (Homo sapiens) (UniProt P04626); assay: Inhibition of Her2
Receptor tyrosine-protein kinase erbB-2 (Homo sapiens), sequence (P04626 whole entry): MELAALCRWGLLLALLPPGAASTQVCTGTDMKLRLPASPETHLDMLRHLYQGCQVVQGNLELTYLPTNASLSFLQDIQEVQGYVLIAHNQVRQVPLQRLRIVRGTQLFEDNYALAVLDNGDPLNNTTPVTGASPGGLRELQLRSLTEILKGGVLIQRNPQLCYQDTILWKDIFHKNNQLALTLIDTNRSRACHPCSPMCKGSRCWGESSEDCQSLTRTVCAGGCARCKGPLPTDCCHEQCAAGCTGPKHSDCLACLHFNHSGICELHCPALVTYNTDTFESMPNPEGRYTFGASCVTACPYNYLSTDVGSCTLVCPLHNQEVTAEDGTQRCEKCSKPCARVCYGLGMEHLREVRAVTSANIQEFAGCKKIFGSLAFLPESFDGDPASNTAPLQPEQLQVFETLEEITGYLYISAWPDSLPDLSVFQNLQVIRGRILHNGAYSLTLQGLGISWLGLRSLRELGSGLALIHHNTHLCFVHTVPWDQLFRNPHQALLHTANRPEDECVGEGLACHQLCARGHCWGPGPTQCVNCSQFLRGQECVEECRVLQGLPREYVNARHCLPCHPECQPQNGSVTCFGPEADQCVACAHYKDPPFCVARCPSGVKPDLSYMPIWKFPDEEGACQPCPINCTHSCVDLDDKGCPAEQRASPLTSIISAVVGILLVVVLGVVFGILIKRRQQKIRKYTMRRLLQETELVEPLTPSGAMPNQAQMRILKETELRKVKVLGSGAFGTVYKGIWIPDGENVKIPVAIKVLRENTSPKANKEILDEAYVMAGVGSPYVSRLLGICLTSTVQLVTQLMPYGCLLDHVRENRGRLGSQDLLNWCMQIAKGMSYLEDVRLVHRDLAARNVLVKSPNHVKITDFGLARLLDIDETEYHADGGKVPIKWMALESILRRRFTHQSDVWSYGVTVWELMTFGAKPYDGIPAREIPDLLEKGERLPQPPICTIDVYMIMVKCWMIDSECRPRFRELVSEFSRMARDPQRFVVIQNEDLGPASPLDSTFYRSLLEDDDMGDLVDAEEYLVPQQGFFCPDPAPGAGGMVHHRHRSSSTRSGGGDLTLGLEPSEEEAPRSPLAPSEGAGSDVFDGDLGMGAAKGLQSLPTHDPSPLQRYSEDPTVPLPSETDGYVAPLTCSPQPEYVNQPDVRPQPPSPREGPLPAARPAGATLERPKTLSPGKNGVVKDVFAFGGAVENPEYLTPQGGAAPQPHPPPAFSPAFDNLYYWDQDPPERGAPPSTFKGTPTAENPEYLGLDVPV

[21] = molecular target: T4, Tyrosine-protein kinase ITK/TSK (Homo sapiens) (UniProt Q08881); assay: Inhibition of EMT
T4 sequence (whole entry): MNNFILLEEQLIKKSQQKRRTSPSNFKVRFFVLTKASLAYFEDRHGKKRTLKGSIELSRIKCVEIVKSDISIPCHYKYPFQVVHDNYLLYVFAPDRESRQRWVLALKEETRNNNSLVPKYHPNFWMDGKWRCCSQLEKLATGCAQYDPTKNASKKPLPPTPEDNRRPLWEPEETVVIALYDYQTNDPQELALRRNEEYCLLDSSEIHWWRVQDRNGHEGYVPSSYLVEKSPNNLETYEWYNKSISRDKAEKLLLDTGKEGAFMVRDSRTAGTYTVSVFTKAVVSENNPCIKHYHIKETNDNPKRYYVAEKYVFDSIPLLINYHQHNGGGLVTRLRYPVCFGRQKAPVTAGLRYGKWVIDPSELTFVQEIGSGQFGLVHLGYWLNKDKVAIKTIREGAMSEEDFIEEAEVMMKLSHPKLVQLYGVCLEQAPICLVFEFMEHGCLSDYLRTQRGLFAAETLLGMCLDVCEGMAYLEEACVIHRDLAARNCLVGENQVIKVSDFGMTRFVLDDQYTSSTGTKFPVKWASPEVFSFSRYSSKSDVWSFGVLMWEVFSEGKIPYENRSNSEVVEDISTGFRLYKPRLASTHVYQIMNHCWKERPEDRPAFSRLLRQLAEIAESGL

[22] = molecular target: Tyrosine-protein kinase Lck (Homo sapiens) (UniProt P06239); assay: Inhibition of LCK
Tyrosine-protein kinase Lck (Homo sapiens), sequence (P06239 2-509 limits assumed): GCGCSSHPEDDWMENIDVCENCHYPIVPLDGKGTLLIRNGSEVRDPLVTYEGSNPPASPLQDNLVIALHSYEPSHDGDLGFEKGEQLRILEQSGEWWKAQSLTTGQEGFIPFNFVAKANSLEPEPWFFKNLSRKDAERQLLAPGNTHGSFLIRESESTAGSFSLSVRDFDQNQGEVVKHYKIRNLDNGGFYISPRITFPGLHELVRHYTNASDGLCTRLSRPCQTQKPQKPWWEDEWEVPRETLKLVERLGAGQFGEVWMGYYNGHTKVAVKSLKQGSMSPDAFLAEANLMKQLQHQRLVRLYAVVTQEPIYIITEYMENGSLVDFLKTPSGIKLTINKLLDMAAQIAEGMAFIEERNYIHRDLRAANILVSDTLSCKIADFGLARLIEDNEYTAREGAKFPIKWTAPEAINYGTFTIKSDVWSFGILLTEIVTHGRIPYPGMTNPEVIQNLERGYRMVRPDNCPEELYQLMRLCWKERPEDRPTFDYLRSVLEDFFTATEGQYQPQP

[23] = Aqueous solubility in sodium phosphate buffer at pH 6.5; type: physicochemical
[24] = molecular target: MAP kinase p38 (Homo sapiens) (UniProt O15264+Q15759+Q16539+P53778); assay: Inhibition of p38; type: protein assay

Cc1ccc2nc(NCCN)c3ncc(C)n3c2c1 [BMS-345541]
Cmax [1]: 1.4 µM | concentration at 5.5 h [2]: 4.2 µM | Activity [3]: 70% | EC50 [4]: 13300 nM | CC50 [5]: 100000 nM | Activity [6]: 82% | Tmax [7]: 30 min | AUC(0-t) [8]: 3.8 µM·h | concentration at 2.5 h [9]: 7.6 µM | EC50 [10]: 800 nM | Stability [11]: < 0.01 nmol/mg/min | Stability [12]: 0.016 nmol/mg/min

CNc1nc2cc(-c3cccc(CNC(N)=O)c3)sc2n2c(C)cnc12
Cmax [1]: 0.15 µM | IC50 [13]: 43 nM | EC50 [4]: 340 nM | CC50 [5]: > 100000 nM | Tmax [7]: 30 min | AUC(0-t) [8]: 0.38 µM·h | EC50 [10]: 68 nM | Stability [11]: 0.066 nmol/mg/min | Stability [12]: 0.221 nmol/mg/min | IC50 [14]: 260 nM

CNc1nc2cc(-c3cccc(CCNC(N)=O)c3)sc2n2c(C)cnc12
IC50 [13]: 18 nM | Activity [15]: inactive | EC50 [4]: 550 nM | CC50 [5]: > 100000 nM | IC50 [14]: 130 nM

CNc1nc2cc(-c3cccc(CCNCC(N)=O)c3)sc2n2c(C)cnc12
Cmax [1]: 5.2 µM | concentration at 5.5 h [2]: 2.1 µM | Activity [3]: inactive | IC50 [13]: 13 nM | EC50 [4]: 1810 nM | CC50 [5]: > 100000 nM | Activity [6]: 49% | Tmax [7]: 60 min | AUC(0-t) [8]: 9.6 µM·h | concentration at 2.5 h [9]: 14.3 µM | EC50 [10]: 1370 nM | Stability [11]: 0.017 nmol/mg/min | Stability [12]: 0.07 nmol/mg/min | IC50 [14]: 390 nM

CNc1nc2cc(-c3ccccc3)sc2n2c(C)cnc12
Activity [16]: inactive | Activity [17]: inactive | Activity [18]: inactive | IC50 [13]: 27 nM | Activity [19]: inactive | Activity [15]: inactive | EC50 [4]: 1350 nM | CC50 [5]: > 100000 nM | Activity [20]: inactive | Activity [21]: inactive | Activity [22]: inactive | solubility [23]: < 1 µg/mL | Activity [24]: inactive | IC50 [14]: 1090 nM

CNC(=O)C(N)Cc1cccc(-c2cc3nc(NC)c4ncc(C)n4c3s2)c1 (racemic)
IC50 [13]: 36 nM | EC50 [4]: 470 nM | CC50 [5]: 68000 nM | solubility [23]: 42 µg/mL (≈ 106 µM) | IC50 [14]: 330 nM

Cc1cnc2c(NCCN3CCCCC3)nc3cc(-c4ccccc4)sc3n12
Activity [16]: inactive | Activity [17]: inactive | Activity [18]: inactive | IC50 [13]: 40 nM | Activity [19]: inactive | Activity [15]: inactive | EC50 [4]: 13400 nM | CC50 [5]: 15000 nM | Activity [20]: inactive | Activity [21]: inactive | Activity [22]: inactive | Activity [24]: inactive | IC50 [14]: 3130 nM

Cc1cnc2c(NCCN)nc3cc(-c4ccccc4)sc3n12
Activity [16]: inactive | Activity [17]: inactive | Activity [18]: inactive | IC50 [13]: 22 nM | Activity [19]: inactive | Activity [15]: inactive | EC50 [4]: > 100000 nM | CC50 [5]: 77000 nM | Activity [20]: inactive | Activity [21]: inactive | Activity [22]: inactive | Activity [24]: inactive | IC50 [14]: 910 nM

CNc1nc2cc(-c3cccc(CN)c3)sc2n2c(C)cnc12
IC50 [13]: 8.5 nM | Activity [15]: inactive | EC50 [4]: 5880 nM | CC50 [5]: 19000 nM | IC50 [14]: 220 nM

CNc1nc2cc(-c3cccc(CC(N)=O)c3)sc2n2c(C)cnc12
Cmax [1]: 0.29 µM | IC50 [13]: 8 nM | EC50 [4]: 360 nM | CC50 [5]: > 100000 nM | Tmax [7]: 30 min | AUC(0-t) [8]: 0.63 µM·h | EC50 [10]: 65 nM | Stability [11]: 0.062 nmol/mg/min | Stability [12]: 0.13 nmol/mg/min | IC50 [14]: 680 nM

CCNC(=O)C(N)Cc1cccc(-c2cc3nc(NC)c4ncc(C)n4c3s2)c1 (racemic)
Cmax [1]: 8.6 µM | IC50 [13]: 590 nM | EC50 [4]: 1050 nM | CC50 [5]: 71000 nM | Tmax [7]: 30 min | AUC(0-t) [8]: 9.89 µM·h | EC50 [10]: 140 nM | Stability [11]: 0.069 nmol/mg/min | Stability [12]: 0.145 nmol/mg/min | solubility [23]: 44 µg/mL (≈ 108 µM) | IC50 [14]: 1010 nM
